Measurements: patent US20050261174A1, “Insecticidal activity of a cyclic peptide” (priority 2004, published 2005)
Where “and” joins values, the source holds several entries; their conditions need not be identical. Identical values can stand only once. Entries after “also recorded” stand apart in the source; their conditions may differ.

Assays:
Assay type in all cases: in vivo
[1] = system: beet armyworm (Spodoptera exigua); assay: Beet armyworm topical test
Description: Insecticidal Test for Beet Armyworm (Spodoptera exigua) in Topical Assays.
To prepare topical solutions, 0.5 mg of test compound was dissolved into 0.5 ML of a 90:10 acetone:water solvent. A volume of 1 or 2 μl of the test solutions was topically applied to each of early fourth-instar beet armyworm larvae. Six larvae (6 replications) were used for each treatment. This application rate was equivalent to 1 or 2 μg per larva. Treated larvae were individually placed in wells of 6-well plastic plates and fed an artificial diet. Observations were made at one, two and three days after treatment.

[2] = system: cotton aphid (Aphis gossypii); assay: Insecticidal test for cotton aphid, foliar spray on infested squash cotyledons; conditions: for % control: 3 days, population reduction versus untreated
Description: To prepare spray solutions, 0.5 mg of test compound was dissolved into 0.5 mL of a 90:10 acetone: water solvent. This 0.5 mL of chemical solution was added to 4.5 mL of water containing 0.025% Tween 20 surfactant to produce a 100 ppm spray solution. Lower concentrations were made by diluting the 100 ppm solution with water containing 0.025% Tween 20.
Squash cotyledons with a single cotyledon leaf were infested with cotton aphid (wingless adult and nymph) 16-20 hours prior to application of spray solution. The solution was sprayed with a hand-held Devilbiss sprayer on both sides of each infested squash cotyledon until runoff. Reference plants (solvent check) were sprayed with 0.025% Tween 20 containing 9% acetone. The plants were allowed to air dry and held for 3 days in a controlled room at 25° C. and 40% RH after which time the test was graded. Grading was by actual count using a dissecting microscope and comparison of test counts to the untreated check. Results are given in Table 2 as percent control based on population reduction versus the untreated.

[3] = system: tobacco budworm (Heliothis virescens); assay: Tobacco budworm dietary test; conditions: for Symptom, 1 day / Symptom, 3 day: second-instar larvae
Description: (§1) Insecticidal Test for Tobacco Budworm (Heliothis virescens), Beet Armyworm (Spodoptera exigua) and Cabbage Looper (Trichoplusia ni) in Dietary Assays.
(§2) Dietary assays were conducted in 128-well plastic trays. To prepare a 1000 ppm stock solution, 0.5 mg of test compound was dissolved into 0.5 mL of a 90:10 acetone:water solvent. The test solutions of 125 ppm and lower concentrations were made by sequentially diluting the stock solution with a 90:10 acetone: water solvent. A volume of 50 μl of the test solutions was pipetted upon the surface of 1 mL of lepidopteran diet (Southland Multi-Species Lepidopteran Diet) in each well of 128-well plastic trays. The highest application rate using the 125 ppm solution was equivalent to 3.1 μg/cm^2. For beet armyworm and cabbage looper, four wells (4 replications) were used for each treatment on each insect species. For tobacco budworm, eight wells (8 replications) were used for each treatment. A second-instar tobacco budworm, two second-instar beet armyworm or two early third-instar cabbage looper larvae were placed upon the treated diet in each well once the solvent had been air-dried. Trays containing the treated diet and larvae were covered with self-adhesive transparent sheets and held in a growth chamber at 25° C., 50-55% RH, and 16 h light: 8 h dark Observation were conducted 1 and 3 days after treatment and infestation.

[4] = system: cabbage looper (Trichoplusia ni); assay: Cabbage looper dietary test; conditions: for Symptom, 1 day / Symptom, 3 day: early third-instar larvae
Description: as §1, §2

[5] = system: green peach aphid (Myzus persicae); assay: Insecticidal test for green peach aphid, foliar spray on infested cabbage seedlings; conditions: for No. of live aphid, average / No. of live aphid, plant 1 / No. of live aphid, plant 2 / No. of live aphid, plant 3 / No. of live aphid, plant 4: graded after three days; for % control: three days, population reduction versus untreated
Description: Insecticidal Test for Green Peach Aphid (Myzus persicae).
Cabbage seedlings grown in 3-inch pots, with 2-3 small (3-5 cm) true leaves, were used as test substrate. The seedlings were infested with green peach aphids (wingless adult and nymph) 2-3 days prior to chemical application. Four seedlings were used for each treatment. To prepare spray solutions, 0.5 mg of test compound was dissolved into 0.5 mL of a 90:10 acetone:water solvent. This 0.5 mL of chemical solution was added to 4.5 mL of water containing 0.025% Tween 20 surfactant to produce a 100 ppm spray solution. Lower concentrations were made by diluting the 100 ppm solution with water containing 0.025% Tween 20.
A hand-held Devilbiss sprayer was used for spraying a solution to both sides of cabbage leaves until runoff. Reference plants (solvent check) were sprayed with 0.025% Tween 20 containing 9% acetone. Treated plants were held in a holding room for three days at approximately 25° C. and 40% RH prior to grading. Evaluation was conducted by counting the number of live aphids per plant under a microscope. Results are given in Table 3 as percent control based on population reduction versus the untreated.

[6] = system: beet armyworm (Spodoptera exigua); assay: Beet armyworm dietary test; conditions: for Symptom, 1 day / Symptom, 3 day: second-instar larvae
Description: as §1, §2

[7] = 4 PPM spray, graded after 3 days
[8] = 20 PPM spray, graded after 3 days
[9] = 100 PPM spray, graded after 3 days
[10] = 1.95 PPM (0.049 ug/cm2) on diet

C/C=C1\NC(=O)[C@H]2CSSCC/C=C/[C@H](CC(=O)N[C@H](C(C)C)C(=O)N2)OC(=O)[C@H](C(C)C)NC1=O [compound of formula (I), FR901228]
% Mortality, 1 day ([1]; 1 ug/larva topical, 1 day): 0%
% Mortality, 2 day ([1]; 1 ug/larva topical): 17%
% Mortality, 3 day ([1]; 1 ug/larva topical, 3 day): 67%
% Mortality, 1 day ([1]; 2 ug/larva topical, 1 day): 0%
% Mortality, 2 day ([1]; 2 ug/larva topical): 85%
% Mortality, 3 day ([1]; 2 ug/larva topical, 3 day): 100%

C/C=C1\NC(=O)C2CSSCC/C=C/C(CC(=O)NC(C(C)C)C(=O)N2)OC(=O)C(C(C)C)NC1=O (centres unmarked) [compound of formula (I), FR901228]
% control ([2]; 4 PPM spray): 87%
No. of live aphid, average [2, 7]: 27
No. of live aphid, plant 1 [2, 7]: 27
No. of live aphid, plant 2 [2, 7]: 40
No. of live aphid, plant 3 [2, 7]: 64
No. of live aphid, plant 4 [2, 7]: 83
% control ([2]; 20 PPM spray): 95.2%
No. of live aphid, average [2, 8]: 10
No. of live aphid, plant 1 [2, 8]: 16
No. of live aphid, plant 2 [2, 8]: 4
% control ([2]; 100 PPM spray): 100%
No. of live aphid, average [2, 9]: 0
No. of live aphid, plant 1 [2, 9]: 0
No. of live aphid, plant 2 [2, 9]: 0
Symptom, 1 day ([1]; 1 ug/larva topical, early fourth-instar larvae, 1 day): 2 dying w/duiresis, and 2 unable to right, and 2 small, 1 OK
Symptom, 3 day ([1]; 2 ug/larva topical, early fourth-instar larvae, 3 day): all dead; also recorded: w/duiresis
% Dead, 1 day ([3]; 1 PPM (0.025 ug/cm2) on diet): 0%
% Dead, 3 day ([3]; 1 PPM (0.025 ug/cm2) on diet): 0%
Symptom, 1 day ([3]; 1 PPM (0.025 ug/cm2) on diet): none
% Dead, 1 day ([3]; 5 PPM (0.13 ug/cm2) on diet): 0%
% Dead, 3 day ([3]; 5 PPM (0.13 ug/cm2) on diet): 0%
Symptom, 1 day ([3]; 5 PPM (0.13 ug/cm2) on diet): 80% size of UTC
Symptom, 3 day ([3]; 5 PPM (0.13 ug/cm2) on diet): 60% size of UTC
% Dead, 1 day ([3]; 25 PPM (0.63 ug/cm2) on diet): 0%
% Dead, 3 day ([3]; 25 PPM (0.63 ug/cm2) on diet): 0%
Symptom, 1 day ([3]; 25 PPM (0.63 ug/cm2) on diet): 60% size of UTC
Symptom, 3 day ([3]; 25 PPM (0.63 ug/cm2) on diet): 40% size of UTC
% Dead, 1 day ([3]; 125 PPM (3.1 ug/cm2) on diet): 0%
% Dead, 3 day ([3]; 125 PPM (3.1 ug/cm2) on diet): 0%
% Dead, 1 day [4, 10]: 0%
% Dead, 3 day [4, 10]: 0%
Symptom, 1 day [4, 10]: none
Symptom, 3 day [4, 10]: none
% Dead, 1 day ([4]; 7.8 PPM (0.195 ug/cm2) on diet): 0%
% Dead, 3 day ([4]; 7.8 PPM (0.195 ug/cm2) on diet): 0%
Symptom, 1 day ([4]; 7.8 PPM (0.195 ug/cm2) on diet): none
Symptom, 3 day ([4]; 7.8 PPM (0.195 ug/cm2) on diet): 60% size of UTC
% Dead, 1 day ([4]; 31.3 PPM (0.78 ug/cm2) on diet): 0%
% Dead, 3 day ([4]; 31.3 PPM (0.78 ug/cm2) on diet): 0%
Symptom, 1 day ([4]; 31.3 PPM (0.78 ug/cm2) on diet): none
Symptom, 3 day ([4]; 31.3 PPM (0.78 ug/cm2) on diet): 40% size of UTC
% Dead, 1 day ([4]; 125 PPM (3.1 ug/cm2) on diet): 25%
% Dead, 3 day ([4]; 125 PPM (3.1 ug/cm2) on diet): 50%
No. of live aphid, average ([5]; 20 PPM spray): 55
No. of live aphid, plant 1 ([5]; 20 PPM spray): 47
No. of live aphid, plant 2 ([5]; 20 PPM spray): 53
No. of live aphid, plant 3 ([5]; 20 PPM spray): 87
No. of live aphid, plant 4 ([5]; 20 PPM spray): 32
% control ([5]; 20 PPM spray): 35.8%
No. of live aphid, average ([5]; 100 PPM spray): 24
No. of live aphid, plant 1 ([5]; 100 PPM spray): 8
No. of live aphid, plant 2 ([5]; 100 PPM spray): 31
No. of live aphid, plant 3 ([5]; 100 PPM spray): 30
No. of live aphid, plant 4 ([5]; 100 PPM spray): 26
% control ([5]; 100 PPM spray): 72.1%
% Dead, 1 day [6, 10]: 0%
% Dead, 3 day [6, 10]: 0%
Symptom, 1 day [6, 10]: 90% size of UTC
Symptom, 3 day [6, 10]: 30% size of UTC
% Dead, 1 day ([6]; 7.8 PPM (0.195 ug/cm2) on diet): 0%
% Dead, 3 day ([6]; 7.8 PPM (0.195 ug/cm2) on diet): 0%
Symptom, 1 day ([6]; 7.8 PPM (0.195 ug/cm2) on diet): 70% size of UTC
Symptom, 3 day ([6]; 7.8 PPM (0.195 ug/cm2) on diet): 15% size of UTC
% Dead, 1 day ([6]; 31.3 PPM (0.78 ug/cm2) on diet): 0%
% Dead, 3 day ([6]; 31.3 PPM (0.78 ug/cm2) on diet): 0%
Symptom, 1 day ([6]; 31.3 PPM (0.78 ug/cm2) on diet): 50% size of UTC
Symptom, 3 day ([6]; 31.3 PPM (0.78 ug/cm2) on diet): 10% size of UTC
% Dead, 1 day ([6]; 125 PPM (3.1 ug/cm2) on diet): 0%
% Dead, 3 day ([6]; 125 PPM (3.1 ug/cm2) on diet): 100%
Symptom, 1 day ([6]; 125 PPM (3.1 ug/cm2) on diet): 30% size of UTC
Symptom, 3 day ([6]; 125 PPM (3.1 ug/cm2) on diet): all dead
